System: mouse cortical cultures
Test: RNA-seq differential expression (DESeq) against matched vehicle
Format: cell-based
Set-up: key to MeanFenamidone Bcl11b / MeanFenamidone Slc12a4 / MeanFenamidone Abca1 / MeanFenamidone Hmox1 / MeanFenamidone Il1rap / MeanFenamidone Cyba / MeanFenamidone Narf / MeanFenamidone Bnip3 / MeanFenamidone Amotl2 / MeanFenamidone Gad2 / MeanFenamidone Vsnl1 / MeanFenamidone Fam178a: DESeq mean of counts over RefSeq exons
Method: Figure 4 Cluster 2 chemicals alter expression of a common set of genes. […] RNA-seq was performed in quadruplicate after treating cortical cultures with fenamidone (10 μM) or pyraclostrobin (0.1 μM) for 24 h (n=3 biological replicates) and compared with matched vehicle controls using DESeq to detect differentially expressed genes, listed in Supplementary Data 4.
Cultures were treated with the non-cytotoxic dose of each chemical, by exchanging half of the original medium with chemicals at 2 × concentration in prewarmed feeding medium, on DIV 7 for 24 h in 12-well plates at a density of 5 × 10^5 cells per well. RNA was isolated using RNeasy plus mini kit (Cat. #74134, Qiagen). […]. Samples were further assessed for quality using either an Agilent Bioanalyzer 2100 or TapeStation 2200 to obtain a RIN. RIN values exceeding 7 were used for sequencing. RNA samples were used to generate and barcode complementary DNA libraries using the TruSeq RNA Library Preparation Kit at the UNC High Throughput Sequencing Facility. Pools of 24 multiplexed samples were sequenced per lane on an Illumina HiSeq 2500 using 50-bp paired-end reads.
RNA-seq reads were filtered using TagDust and aligned to the reference mouse genome (mm9) with TopHat using default parameters. Reads aligning to ribosomal RNA genes were removed. Transcript abundance was estimated by computing Reads per kilobase per million mapped reads (RPKM) using RefSeq gene models aggregated by gene symbol. For differential expression analyses, raw counts over RefSeq exons were used, and then were compared across samples using DESeq[62].

CSC1=N[C@@](C)(c2ccccc2)C(=O)N1Nc1ccccc1 [fenamidone]
MeanFenamidone Kirrel (gene Kirrel, DESeq mean, 4 reps): 376.176 | log2FoldChange Kirrel (gene Kirrel, vs vehicle, 4 reps): 1.966 | MeanFenamidone Klf3 (gene Klf3, DESeq mean, 4 reps): 165.964 | log2FoldChange Klf3 (gene Klf3, vs vehicle, 4 reps): 1.6001 | MeanFenamidone Lama5 (gene Lama5, DESeq mean, 4 reps): 696.831 | log2FoldChange Lama5 (gene Lama5, vs vehicle, 4 reps): 3.008 | MeanFenamidone Lamc1 (gene Lamc1, DESeq mean, 4 reps): 1262.75 | log2FoldChange Lamc1 (gene Lamc1, vs vehicle, 4 reps): 1.942 | MeanFenamidone Lats2 (gene Lats2, DESeq mean, 4 reps): 789.339 | log2FoldChange Lats2 (gene Lats2, vs vehicle, 4 reps): 2.05 | MeanFenamidone (gene Lgals1): 315.526 | log2FoldChange (gene Lgals1): 2.643 | MeanFenamidone Lgals3 (gene Lgals3, DESeq mean, 4 reps): 148.009 | log2FoldChange Lgals3 (gene Lgals3, vs vehicle, 4 reps): 3.47 | MeanFenamidone Lhfp (gene Lhfp, DESeq mean, 4 reps): 460.237 | log2FoldChange Lhfp (gene Lhfp, vs vehicle, 4 reps): 1.564 | MeanFenamidone (gene Lhx6): 36.2637 | log2FoldChange (gene Lhx6): -1.466 | MeanFenamidone Lif (gene Lif, DESeq mean, 4 reps): 71.2282 | log2FoldChange Lif (gene Lif, vs vehicle, 4 reps): 2.278 | MeanFenamidone Lima1 (gene Lima1, DESeq mean, 4 reps): 304.711 | log2FoldChange Lima1 (gene Lima1, vs vehicle, 4 reps): 2.122 | MeanFenamidone Lipa (gene Lipa, DESeq mean, 4 reps): 195.186 | log2FoldChange Lipa (gene Lipa, vs vehicle, 4 reps): 1.701 | MeanFenamidone (gene Lpp): 386.544 | log2FoldChange (gene Lpp): 2.227 | MeanFenamidone (gene Lrig1): 287.461 | log2FoldChange (gene Lrig1): 1.313 | MeanFenamidone Lrp2 (gene Lrp2, DESeq mean, 4 reps): 218.41 | log2FoldChange Lrp2 (gene Lrp2, vs vehicle, 4 reps): 3.259 | MeanFenamidone Lrp5 (gene Lrp5, DESeq mean, 4 reps): 104.9 | log2FoldChange Lrp5 (gene Lrp5, vs vehicle, 4 reps): 2.141 | MeanFenamidone Lrrk1 (gene Lrrk1, DESeq mean, 4 reps): 150.568 | log2FoldChange Lrrk1 (gene Lrrk1, vs vehicle, 4 reps): 2.538 | MeanFenamidone Lrrk2 (gene Lrrk2, DESeq mean, 4 reps): 55.3056 | log2FoldChange Lrrk2 (gene Lrrk2, vs vehicle, 4 reps): 2.7898 | MeanFenamidone Lsm11 (gene Lsm11, DESeq mean, 4 reps): 253.873 | log2FoldChange Lsm11 (gene Lsm11, vs vehicle, 4 reps): -1.609 | MeanFenamidone Lzts1 (gene Lzts1, DESeq mean, 4 reps): 28.4823 | log2FoldChange Lzts1 (gene Lzts1, vs vehicle, 4 reps): -2.067 | MeanFenamidone Maff (gene Maff, DESeq mean, 4 reps): 142.888 | log2FoldChange Maff (gene Maff, vs vehicle, 4 reps): 2.5091 | MeanFenamidone (gene Man2b1): 147.398 | log2FoldChange (gene Man2b1): 1.707 | MeanFenamidone (gene Map9): 691.478 | log2FoldChange (gene Map9): -1.0525 | MeanFenamidone Mapkapk3 (gene Mapkapk3, DESeq mean, 4 reps): 109.426 | log2FoldChange Mapkapk3 (gene Mapkapk3, vs vehicle, 4 reps): 2.329 | MeanFenamidone Mdk (gene Mdk, DESeq mean, 4 reps): 140.699 | log2FoldChange Mdk (gene Mdk, vs vehicle, 4 reps): 2.08 | MeanFenamidone (gene Mdm2): 455.963 | log2FoldChange (gene Mdm2): 1.1 | MeanFenamidone Mllt11 (gene Mllt11, DESeq mean, 4 reps): 1306.3 | log2FoldChange Mllt11 (gene Mllt11, vs vehicle, 4 reps): -1.396 | MeanFenamidone Mpp6 (gene Mpp6, DESeq mean, 4 reps): 437.651 | log2FoldChange Mpp6 (gene Mpp6, vs vehicle, 4 reps): 1.381 | MeanFenamidone Msn (gene Msn, DESeq mean, 4 reps): 1825.06 | log2FoldChange Msn (gene Msn, vs vehicle, 4 reps): 2.348 | MeanFenamidone Mturn (gene Mturn, DESeq mean, 4 reps): 252.358 | log2FoldChange Mturn (gene Mturn, vs vehicle, 4 reps): -1.427 | MeanFenamidone Myh9 (gene Myh9, DESeq mean, 4 reps): 944.67 | log2FoldChange Myh9 (gene Myh9, vs vehicle, 4 reps): 2.571 | MeanFenamidone (gene Myl9): 343.782 | log2FoldChange (gene Myl9): 2.6473 | MeanFenamidone Myl12a (gene Myl12a, DESeq mean, 4 reps): 537.985 | log2FoldChange Myl12a (gene Myl12a, vs vehicle, 4 reps): 2.298 | MeanFenamidone (gene Myo9b): 246.577 | log2FoldChange (gene Myo9b): 1.347 | MeanFenamidone Myof (gene Myof, DESeq mean, 4 reps): 104.99 | log2FoldChange Myof (gene Myof, vs vehicle, 4 reps): 3.761 | MeanFenamidone Nap1l2 (gene Nap1l2, DESeq mean, 4 reps): 81.273 | log2FoldChange Nap1l2 (gene Nap1l2, vs vehicle, 4 reps): -1.959 | MeanFenamidone Nap1l3 (gene Nap1l3, DESeq mean, 4 reps): 110.395 | log2FoldChange Nap1l3 (gene Nap1l3, vs vehicle, 4 reps): -1.464 | MeanFenamidone Narf (gene Narf, DESeq mean, 4 reps): 102.622 | log2FoldChange Narf (gene Narf, vs vehicle, 4 reps): -2.14 | MeanFenamidone (gene Ndrg4): 999.172 | log2FoldChange (gene Ndrg4): -1.28

— paper PMC4821887, “Identification of chemicals that mimic transcriptional changes associated with autism, brain aging and neurodegeneration” (Nature Communications, 2016)
